Measurements taken from paper PMC6222614, “Disubstituted 4-Chloro-3-nitrophenylthiourea Derivatives: Antimicrobial and Cytotoxic Studies” (Molecules : A Journal of Synthetic Chemistry and Natural …, 2018).
Like-named read-outs stand apart in the source and are kept apart here.

Tests used:
CCRF-CEM = assay: Antiproliferative assay (MTT); assay type: cell-based, human; settings: concentration reducing cell proliferation by 50%, 96 h, mean of three determinations
Method: (§1) Cell lines derived from human hematological tumors were: CD4+ human T-cells containing an integrated HTLV-1 genome (MT-4); CD4+ human acute T-lymphoblastic leukemia (CCRF-CEM); human splenic B-lymphoblastoid cells (WIL-2NS); human acute B-lymphoblastic leukemia (CCRF-SB). Cells were seeded at an initial density of 1 × 10^5 cells/mL in 96 well plates in RPMI-1640 medium supplemented with 10% fetal calf serum (FCS), 100 units/mL penicillin G and 100 μg/mL streptomycin.
(§2) Cell lines derived from human solid tumors were: Skin melanoma (SK-MEL-28); prostate carcinoma (DU-145). Normal tissues foreskin fibroblasts (CRL-7065) were also used. Cells were seeded at 1 × 10^5 cells/mL in 96 well plates in specific media supplemented with 10% FCS and antibiotics, as above. Cell cultures were then incubated at 37 °C in a humidified, 5% CO2 atmosphere in the absence or presence of serial dilutions of test compounds. Cell viability was determined after 96 h at 37 °C by the MTT method.

CCRF-SB = assay: Antiproliferative assay (MTT); assay type: cell-based, human; settings: concentration reducing cell proliferation by 50%, 96 h, mean of three determinations
Method: as §1, §2

MT-4 = assay: Antiproliferative assay (MTT); assay type: cell-based, human; settings: concentration reducing cell proliferation by 50%, 96 h, mean of three determinations
Method: as §1, §2

WIL-2NS = assay: Antiproliferative assay (MTT); assay type: cell-based, human; settings: concentration reducing cell proliferation by 50%, 96 h, mean of three determinations
Method: as §1, §2

DU145 = assay: Antiproliferative assay (MTT); assay type: cell-based, human; settings: prostate carcinoma, concentration reducing cell proliferation by 50%, 96 h
Method: as §2

SK-MEL-28 = assay: Antiproliferative assay (MTT); assay type: cell-based, human; settings: skin melanoma, concentration reducing cell proliferation by 50%, 96 h
Method: as §2

CRL7065 = assay: Antiproliferative assay (MTT), normal cell line; assay type: cell-based, human; settings: normal foreskin fibroblasts, concentration reducing cell proliferation by 50%, 96 h
Method: as §2

MT-4 cells = assay: Cytotoxicity against mock-infected MT-4 cells (MTT); assay type: cell-based, human; settings: concentration reducing viability of mock-infected MT-4 cells by 50%, 96 h
Method: (§3) Cell line supporting the multiplication of Human Immunodeficiency Virus type-1 (HIV-1) was the CD4+ human T-cells, derived from human hematological tumors, containing an integrated HTLV-1 genome (MT-4). Cells were purchased from American Type Culture Collection (ATCC). Human Immunodeficiency Virus type-1 (HIV-1) IIIB laboratory strain was obtained from the supernatant of the persistently infected H9/IIIB cells (NIH 1983).
(§4) Exponentially growing MT-4 cells were seeded at an initial density of 1 × 10^5 cells/mL in 96-well plates in RPMI-1640 medium, supplemented with 10% fetal bovine serum (FBS), 100 units/mL penicillin G and 100 μg/mL streptomycin. Cell cultures were then incubated at 37 °C in a humidified, 5% CO2 atmosphere, in the absence or presence of serial dilutions of tested compounds. Cell viability was determined after 96 h at 37 °C by the 3-(4,5-dimethylthiazol-2-yl)-2,5-diphenyl-tetrazolium bromide (MTT) method.

HIV-1 IIIB = assay: Anti-HIV-1 activity: protection of MT-4 cells from virus-induced cytopathogenicity (MTT); assay type: cell-based, Human Immunodeficiency Virus type-1; settings: 50% protection of MT-4 cells from HIV-1 induced cytopathogenicity, MTT, 4-day incubation, read-out: HIV-1IIIB EC50
Description: as §3
The activity of compounds against HIV-1 was based on inhibition of virus-induced cytopathogenicity in MT-4 cell acutely infected with a multiplicity of infection (m.o.i.) of 0.01. Briefly, 50 μL of RPMI containing 1 × 10^4 MT-4 cells were added to each well of flat-bottom microtiter trays, containing 50 μL of RPMI without or with serial dilutions of test compounds. Then, 20 μL of a HIV-1 suspension containing 100 CCID50 were added. After a 4-day incubation at 37 °C, cell viability was determined by the MTT method.

[1] = Cytotoxicity against mock-infected MT-4 cells (MTT); assay type: cell-based, human; settings: human, concentration reducing viability of mock-infected MT-4 cells by 50%
Method: as §3, §4

Row | SMILES | EC50 (HIV-1 IIIB) | EC50 (HIV-1 IIIB; Human immunodeficiency virus 1, IIIB, MT4, 96 h) | CC50 (CCRF-CEM) | CC50 (CCRF-SB) | CC50 (MT-4) | CC50 (WIL-2NS) | CC50 (DU145) | CC50 (SK-MEL-28) | CC50 (CRL7065) | CC50 (MT-4 cells) | CC50 at 96 h [1]
1 | CC[C@@]1(O)C(=O)OCc2c1cc1n(c2=O)Cc2cc3ccccc3nc2-1 [Camptotecin, reference compound] | – | – | 0.003 µM | 0.004 µM | 0.004 µM | 0.005 µM | 0.08 µM | 0.07 µM | 0.3 µM | – | –
2 | O=[N+]([O-])c1cc(NC(=S)Nc2ccccc2Cl)ccc1Cl [Compound 1] | > 8.8 µM | – | 13 µM | 14 µM | 8.8 µM | 14 µM | 7.6 µM | 8.7 µM | 18 µM | 8.8 µM | –
3 | O=[N+]([O-])c1cc(NC(=S)Nc2cccc(Cl)c2)ccc1Cl [Compound 2] | > 7 µM | – | – | – | – | – | – | – | – | 7 µM | –
4 | O=[N+]([O-])c1cc(NC(=S)Nc2ccc(Cl)cc2)ccc1Cl [Compound 3] | > 7 µM | – | – | – | – | – | – | – | – | 7 µM | –
5 | O=[N+]([O-])c1cc(NC(=S)Nc2ccccc2Br)ccc1Cl [Compound 4] | – | – | 22 µM | 22 µM | 9.6 µM | 30 µM | 8 µM | 15 µM | 20 µM | 9.6 µM | –
6 | O=[N+]([O-])c1cc(NC(=S)Nc2cccc(Br)c2)ccc1Cl [Compound 5] | > 8 µM | – | – | – | – | – | – | – | – | 8 µM | –
7 | O=[N+]([O-])c1cc(NC(=S)Nc2ccc(Br)cc2)ccc1Cl [Compound 6] | > 6.6 µM | – | 6 µM | 8 µM | 6.6 µM | 7 µM | 6 µM | 6 µM | 30 µM | 6.6 µM | –
8 | O=[N+]([O-])c1cc(NC(=S)Nc2ccccc2F)ccc1Cl [Compound 7] | > 13 µM | – | – | – | – | – | – | – | – | 13 µM | –
9 | O=[N+]([O-])c1cc(NC(=S)Nc2cccc(F)c2)ccc1Cl [Compound 8] | > 9 µM | – | – | – | – | – | – | – | – | 9 µM | –
10 | O=[N+]([O-])c1cc(NC(=S)Nc2ccc(F)cc2)ccc1Cl [Compound 9] | > 7 µM | – | 9.1 µM | 9.4 µM | 7 µM | 11 µM | 8.4 µM | 20 µM | 22 µM | 7 µM | –
11 | O=[N+]([O-])c1cc(NC(=S)Nc2ccc(F)c(Cl)c2)ccc1Cl [Compound 10] | > 7.3 µM | – | 5 µM | 8.8 µM | 7.3 µM | 7 µM | 6.5 µM | 6.6 µM | 16 µM | 7.3 µM | –

Now from value to compound, other results behind:

Row | EC50 (HIV-1 IIIB) | EC50 (HIV-1 IIIB; Human immunodeficiency virus 1, IIIB, MT4, 96 h) | SMILES | CC50 (CCRF-CEM) | CC50 (CCRF-SB) | CC50 (MT-4) | CC50 (WIL-2NS) | CC50 (DU145) | CC50 (SK-MEL-28) | CC50 (CRL7065) | CC50 (MT-4 cells) | CC50 at 96 h [1]
12 | > 8 µM | – | O=[N+]([O-])c1cc(NC(=S)Nc2ccc(Cl)cc2Cl)ccc1Cl [Compound 12] | – | – | – | – | – | – | – | 8 µM | –
13 | > 8.2 µM | – | Cc1ccc(Cl)cc1NC(=S)Nc1ccc(Cl)c([N+](=O)[O-])c1 [Compound 14] | 9.4 µM | 9.8 µM | 8.2 µM | 10 µM | 7.8 µM | 9 µM | 18 µM | 8.2 µM | –
14 | > 8 µM | – | O=[N+]([O-])c1cc(NC(=S)Nc2cccc(C(F)(F)F)c2)ccc1Cl [Compound 15] | – | – | – | – | – | – | – | 8 µM | –
15 | > 7 µM | – | O=[N+]([O-])c1cc(NC(=S)Nc2ccc(C(F)(F)F)cc2)ccc1Cl [Compound 16] | – | – | – | – | – | – | – | 7 µM | –
16 | > 7.8 µM | – | O=[N+]([O-])c1cc(NC(=S)Nc2ccc(I)cc2)ccc1Cl [Compound 17] | 6 µM | 8.3 µM | 7.8 µM | 7 µM | 11 µM | 6 µM | 30 µM | 7.8 µM | –
17 | > 7 µM | – | O=[N+]([O-])c1ccc(NC(=S)Nc2ccc(Cl)c([N+](=O)[O-])c2)cc1 [Compound 18] | – | – | – | – | – | – | – | 7 µM | –
18 | > 8.2 µM | – | N#Cc1ccc(NC(=S)Nc2ccc(Cl)c([N+](=O)[O-])c2)cc1 [Compound 19] | 9.1 µM | 9.2 µM | 8.2 µM | 10 µM | 8 µM | 9 µM | 20 µM | 8.2 µM | –
19 | > 16.7 µM | – | CC(NC(=S)Nc1ccc(Cl)c([N+](=O)[O-])c1)c1ccccc1 (stereo not shown) [Compound 26] | – | – | – | – | – | – | – | 16.7 µM | –
20 | – | 0.002 µM | O=C1Nc2ccc(Cl)cc2[C@@](C#CC2CC2)(C(F)(F)F)O1 [Efavirenz, reference compound] | – | – | – | – | – | – | – | – | 46 µM
